In the test the test system is P. aeruginosa 26. Put plainly: in vitro Antimicrobial Activity (two-fold agar-plate dilution method). The format is cell-based. The note with it: Pseudomonas aeruginosa, heart infusion agar, 10^6 viable cells per ml, 37° C. for 20 hours, read-out: minimal inhibitory concentration (MIC). The protocol:
in vitro Antimicrobial Activity was determined by the two-fold agar-plate dilution method as described blow.
One loopful of an overnight culture of a test strain in Trypticase-soy broth (10^6 viable cells per ml) was streaked on heart infusion agar (HI-agar) containing graded concentrations of the test compound, and the minimal inhibitory concentration (MIC) was expressed in terms of μg/ml after incubation at 37° C. for 20 hours.
The compound of Example 2.

Values after ≈ are worked out from the molar mass of the structure shown.

On to `C[C@@H](O)[C@H]1C(=O)N2C(C(=O)O)=C(S[C@@H]3CN[C@H](CN4CCNCC4)C3)[C@H](C)[C@H]12` [Example 2, (4R,5S,6S)-6-[(1R)-1-hydroxyethyl]-4-methyl-7-oxo-3-[(2S,4S)-2-(piperazin-1-yl)methylpyrrolidin-4-yl]thio-1-azabicyclo[3.2.0]hept-2-ene-2-carboxylic acid], for which the MIC was found to be 0.39 µg/mL (≈ 0.95 µM).
